Laboratory results taken from patent publication US20250059205A1, “Heterocyclic Compounds and Methods of Use” (AMGEN INC., priority 2021, published 2025).

Key:
[1] = biological target: His-tagged KRAS G12D protein (Homo sapiens, UniProt P01116, G12D); assay: KRAS G12D TR-FRET Assay; assay type: binding
[2] = test system: Phosphorylation of ERK1/2 in A-427 cells; assay: Phospho-ERK1/2 MSD Assay (A-427 cells); assay type: cell-based; details: Homo sapiens, A-427, 2 h, 2 h treatment, read-out: p-ERK (A427 cells) IC50
Summary of the method: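 ERK1/2 phosphorylation measured by Meso Scale whole-cell lysate assay after A-427 cells were exposed to a titration of compound for 2 h at 37 °C.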

[3] = test system: Phosphorylation of ERK1/2 in AsPC-1 cells; assay: Phospho-ERK1/2 MSD Assay (AsPC-1 cells); assay type: cell-based; details: Homo sapiens, ASPC1, 2 h, 2 hours treatment, read-out: p-ERK (AsPC-1 cells) IC50
Summary of the method: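 Read-out: MSD electrochemiluminescent detection of phosphorylated ERK1/2 in whole-cell lysates, fitted to a 4-parameter logistic curve for IC50. Prior to lysis, AsPC-1 cells (25,000 per well) received a 2 h compound dose-response at 37 °C.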

[4] = biological target: GDP-bound KRAS protein (aa 1-169), containing both G12D and C118A amino acid substitutions (Homo sapiens, UniProt P01116, C118A/G12D); assay: KRAS G12D Coupled Nucleotide Exchange Assay; assay type: biochemical; details: 2 h compound pre-incubation
Sequence of GDP-bound KRAS protein (aa 1-169), containing both G12D and C118A amino acid substitutions (P01116 1-169 isoform P01116-2 G12D/C118A): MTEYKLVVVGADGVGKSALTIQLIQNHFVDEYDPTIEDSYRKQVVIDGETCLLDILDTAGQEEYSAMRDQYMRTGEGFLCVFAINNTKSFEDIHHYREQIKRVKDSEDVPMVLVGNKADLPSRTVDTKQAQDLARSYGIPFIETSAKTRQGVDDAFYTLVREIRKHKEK
Method: Following compound pre-incubation, purified SOS protein (aa 564-1049) and GTP (Roche 10106399001) were added to the assay wells and incubated for an additional 30 min. […] The assay plates were then read on a PerkinElmer EnVision Multilabel Reader, using AlphaScreen® technology, and data were analyzed using a 4-parameter logistic model to calculate IC50 values.

Sequence of His-tagged KRAS G12D protein (P01116 1-188 isoform P01116-2 G12D): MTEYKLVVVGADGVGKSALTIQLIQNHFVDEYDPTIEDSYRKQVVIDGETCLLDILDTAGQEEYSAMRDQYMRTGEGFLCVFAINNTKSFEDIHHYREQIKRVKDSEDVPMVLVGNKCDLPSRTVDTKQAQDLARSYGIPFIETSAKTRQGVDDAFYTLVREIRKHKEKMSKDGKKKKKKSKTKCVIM

| Compound | IC50 [1] [nM] | IC50 [2] [nM] | IC50 [3] [nM] | Avg 2 h Coupled Exchange IC50 [4] [nM] |
| --- | --- | --- | --- | --- |
| Cc1ccc2cnn(C)c2c1-c1c(F)cc2c(N3C[C@H]4CC[C@@H](C3)N4)nc(OC[C@@]34CCCN3C[C@H](F)C4)nc2c1F [Example 164, 4-((1R,5S)-3,8-diazabicyclo[3.2.1]octan-3-yl)-7-(1,6-dimethyl-1H-indazol-7-yl)-6,8-difluoro-2-(((2R,7aS)-2-fluorotetrahydro-1H-pyrrolizin-7a(5H)-yl)methoxy) quinazoline] | 7 | 862 | 725 | 6 |
| Cc1ccc2[nH]nc(N)c2c1-c1ccc2c(N3C[C@H]4CC[C@@H](C3)N4)nc(OC[C@@]34CCCN3C[C@H](F)C4)nc2c1F [Example 226, 4-(4-((1R,5S)-3,8-diazabicyclo[3.2.1]octan-3-yl)-8-fluoro-2-(((2R,7aS)-2-fluorotetrahydro-1H-pyrrolizin-7a(5H)-yl)methoxy)quinazolin-7-yl)-5-methyl-1H-indazol-3-amine] | 44 | > 10000 | > 10000 | 7 |
| Cc1cccc(-c2c(F)cc3c(N4C[C@H]5CC[C@@H](C4)N5)nc(OC[C@@]45CCCN4C[C@H](F)C5)nc3c2F)c1C(F)(F)F [Example 149, 4-((1R,5S)-3,8-diazabicyclo[3.2.1]octan-3-yl)-6,8-difluoro-2-(((2R,7aS)-2-fluorotetrahydro-1H-pyrrolizin-7a(5H)-yl)methoxy)-7-(3-methyl-2-(trifluoromethyl)phenyl)quinazoline] | 5 | 939 | 680 | 2 |
| Cc1c(-c2cc(O)cc3ccc(F)c(F)c23)ccc2c(N3C[C@@H]4CC[C@H]3CN4)nc(OC[C@@]34CCCN3C[C@H](F)C4)nc12 [Example 166, 4-(4-((1S,4S)-2,5-diazabicyclo[2.2.2]octan-2-yl)-2-(((2R,7aS)-2-fluorotetrahydro-1H-pyrrolizin-7a(5H)-yl)methoxy)-8-methylquinazolin-7-yl)-5,6-difluoronaphthalen-2-ol] | 94 | 4200 | 1530 | 82 |
| CCc1cccc2cccc(-c3c(F)cc4c(N5C[C@H]6CC[C@@H](C5)N6)nc(OC[C@@]56CCCN5C[C@H](F)C6)nc4c3F)c12 [Example 68, 4-((1R,5S)-3,8-diazabicyclo[3.2. 1]octan-3-yl)-7-(8-ethylnaphthalen-1-yl)-6,8-difluoro-2-(((2R,7aS)-2-fluorotetrahydro-1H-pyrrolizin-7a(5H)-yl)methoxy) quinazoline] | 4 | 732 | 658 | 3 |
| C#Cc1c(F)ccc2cc(O)cc(-c3c(F)cc4c(N5C[C@@H]6CC[C@H]5CN6)nc(OC[C@@]56CCCN5C[C@H](F)C6)nc4c3F)c12 [Example 188, 4-(4-((15,4S)-2,5-diazabicyclo[2.2.2]octan-2-yl)-6,8-difluoro-2-(((2R,7aS)-2-fluorotetrahydro-1H-pyrrolizin-7a(5H)-yl)methoxy)quinazolin-7-yl)-5-ethynyl-6-fluoronaphthalen-2-ol] | 2 | 2 | 16 | 2 |
| CCc1c(F)ccc2cc(O)cc(-c3c(F)cc4c(N5C[C@H]6CC[C@@H](C5)N6)nc(OCC(C)(O)CC)nc4c3F)c12 (stereo partly drawn) [Example 214, 4-(4-((1R,5S)-3,8-diazabicyclo[3.2.1]octan-3-yl)-6,8-difluoro-2-(2-hydroxy-2-methylbutoxy)quinazolin-7-yl)-5-ethyl-6-fluoronaphthalen-2-ol] | 13 | 1700 | 1210 | 5 |
| CCc1c(F)ccc2cc(O)cc(-c3c(F)cc4c(N5C[C@H]6CC[C@@H](C5)N6)nc(OCC5(C)CCC(=O)O5)nc4c3F)c12 (stereo partly drawn) [Example 212, 5-(((4-((1R,5S)-3,8-Diazabicyclo[3.2.1]octan-3-yl)-7-(8-ethyl-7-fluoro-3-hydroxynaphthalen-1-yl)-6,8-difluoroquinazolin-2-yl)oxy)methyl)-5-methyldihydrofuran-2(3H)-one] | 2 | 514 | 784 | 3 |
| CCc1cccc2cccc(-c3ccc4c(N5C[C@H]6CC[C@@H](C5)N6)nc(OC[C@@]56CCCN5C[C@H](F)C6)nc4c3F)c12 [Example 54, 4-((1R,5S)-3,8-diazabicyclo[3.2. 1]octan-3-yl)-7-(8-ethylnaphthalen-1-yl)-8-fluoro-2-(((2R,7aS)-2-fluorotetrahydro-1H-pyrrolizin-7a(5H)-yl)methoxy) quinazoline] | 4 | 795 | 1220 | 3 |
| CN1CCC[C@H]1CCOc1nc(N2C[C@H]3C[C@@H](C2)N3)c2cc(F)c(-c3cc(O)cc4ccccc34)c(F)c2n1 [Example 21, 4-(4-((1R,5S)-3,6-diazabicyclo[3.1. 1]heptan-3-yl)-6,8-difluoro-2-(2-((S)-1-methylpyrrolidin-2-yl)ethoxy)quinazolin-7-yl)naphthalen-2-ol] | 314 | 18100 | 9080 | 78 |
| Cc1ccc2[nH]nc(C)c2c1-c1c(Cl)cc2c(N3C[C@H]4CC[C@@H](C3)N4)nc(OC[C@@]34CCCN3C[C@H](F)C4)nc2c1F [Example 207, 4-((1R,5S)-3,8-Diazabicyclo[3.2.1]octan-3-yl)-6-chloro-7-(3,5-dimethyl-1H-indazol-4-yl)-8-fluoro-2-(((2R,7aS)-2-fluorotetrahydro-1H-pyrrolizin-7a(5H)-yl)methoxy)quinazoline] | 7 | 202 | 348 | 7 |
| Fc1c(-c2c(C(F)(F)F)ccc3[nH]ncc23)ccc2c(N3C[C@H]4CC[C@@H](C3)N4)nc(OC[C@@]34CCCN3C[C@H](F)C4)nc12 [Example 194, 4-((1R,5S)-3,8-diazabicyclo[3.2.1]octan-3-yl)-8-fluoro-2-(((2R,7aS)-2-fluorotetrahydro-1H-pyrrolizin-7a(5H)-yl)methoxy)-7-(5-(trifluoromethyl)-1H-indazol-4-yl)quinazoline] | 14 | 843 | 815 | 10 |
| CCc1cccc2cc(O)cc(-c3ccc4c(N5CCC6CCC(C5)N6)nc(OC[C@@]56CCCN5C[C@H](F)C6)nc4c3F)c12 (stereo partly drawn) [Example 154, 4-(4-(3,9-diazabicyclo[4.2.1]nonan-3-yl)-8-fluoro-2-(((2R,7aS)-2-fluorotetrahydro-1H-pyrrolizin-7a(5H)-yl)methoxy)quinazolin-7-yl)-5-ethylnaphthalen-2-ol] | 13 | 879 | 1030 | 12 |
| Oc1cc(-c2ccc3c(N4[C@@H]5CC[C@H]4CNC5)nc(OC[C@@]45CCCN4C[C@H](F)C5)nc3c2)c2ccccc2c1 [Example 11, 4-(4-((1R,5S)-3,8-diazabicyclo[3.2. 1]octan-8-yl)-2-(((2R,7aS)-2-fluorotetrahydro-1H-pyrrolizin-7a(5H)-yl)methoxy)quinazolin-7-yl)naphthalen-2-ol] | 21 | 2510 | 1530 | 9 |
